Measurements reported in PubChem BioAssay AID248 (DTP/NCI, 2004).
Several values for one entry are separate records, joined by “and”; a condition that tells them apart may be missing. Equal values may be shown once. Inconclusive results and toxic doses are left out. Cut-off read from the data, not from the text of the source: active = T/C of 150% or more; inactive = T/C below 125%.

System: L1210 leukemia ip in BDF1 mice, survival T/C
Assay: NCI In Vivo Anticancer Drug Screen. Data for tumor model L1210 Leukemia (intraperitoneal) in B6D2F1 (BDF1) mice
Details: endpoint: mean survival time, higher = longer survival
Outline: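 In this screen, tumor-bearing mice given compound are compared to those given vehicle, and their survival values are reported as a treated-to-control quotient.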

[1] = dose: 200.0 mg/kg/injection, schedule: Q01DX001 (ip), vehicle: carboxymethylcellulose (CMC)
[2] = dose: 400.0 mg/kg/injection, schedule: Q01DX001 (ip), vehicle: carboxymethylcellulose (CMC)
[3] = dose: 50.0 mg/kg/injection, schedule: Q01DX009 (ip), vehicle: saline with Tween-80
[4] = dose: 100.0 mg/kg/injection, schedule: Q01DX009 (ip), vehicle: saline with Tween-80
[5] = dose: 100.0 mg/kg/injection, schedule: Q04DX003 (ip), vehicle: saline with Tween-80
[6] = dose: 200.0 mg/kg/injection, schedule: Q01DX009 (ip), vehicle: saline with Tween-80
[7] = dose: 200.0 mg/kg/injection, schedule: Q04DX003 (ip), vehicle: saline with Tween-80
[8] = dose: 400.0 mg/kg/injection, schedule: Q04DX003 (ip), vehicle: saline with Tween-80
[9] = dose: 25.0 mg/kg/injection, schedule: Q01DX009 (ip), vehicle: saline with Tween-80
[10] = dose: 100.0 mg/kg/injection, schedule: Q01DX009 (ip), vehicle: Klucel (hydroxypropylcellulose) (HPC)
[11] = dose: 100.0 mg/kg/injection, schedule: Q04DX003 (ip), vehicle: Klucel (hydroxypropylcellulose) (HPC)
[12] = dose: 200.0 mg/kg/injection, schedule: Q01DX009 (ip), vehicle: Klucel (hydroxypropylcellulose) (HPC)
[13] = dose: 200.0 mg/kg/injection, schedule: Q04DX003 (ip), vehicle: Klucel (hydroxypropylcellulose) (HPC)
[14] = dose: 400.0 mg/kg/injection, schedule: Q04DX003 (ip), vehicle: Klucel (hydroxypropylcellulose) (HPC)
[15] = dose: 100.0 mg/kg/injection, schedule: Q01DX001 (ip), vehicle: carboxymethylcellulose (CMC)
[16] = dose: 400.0 mg/kg/injection, schedule: Q01DX009 (ip), vehicle: saline with Tween-80

Measured: T/C

C=CC#N
inactive: dose: 6.0 mg/kg/injection, schedule: Q01DX009 (ip), vehicle: saline 95 % of control | dose: 12.0 mg/kg/injection, schedule: Q01DX009 (ip), vehicle: saline 93 % of control | dose: 12.5 mg/kg/injection, schedule: Q01DX009 (ip), vehicle: saline 98 % of control | dose: 25.0 mg/kg/injection, schedule: Q01DX009 (ip), vehicle: saline 93 % of control | dose: 50.0 mg/kg/injection, schedule: Q01DX009 (ip), vehicle: carboxymethylcellulose (CMC) 93 % of control | dose: 50.0 mg/kg/injection, schedule: Q01DX009 (ip), vehicle: saline 94 % of control and 105 % of control | dose: 50.0 mg/kg/injection, schedule: Q04DX003 (ip), vehicle: saline 91 % of control | dose: 100.0 mg/kg/injection, schedule: Q01DX009 (ip), vehicle: carboxymethylcellulose (CMC) 92 % of control | [1] 90 % of control | dose: 200.0 mg/kg/injection, schedule: Q01DX009 (ip), vehicle: carboxymethylcellulose (CMC) 93 % of control | [2] 95 % of control | dose: 400.0 mg/kg/injection, schedule: Q01DX009 (ip), vehicle: carboxymethylcellulose (CMC) 97 % of control | dose: 600.0 mg/kg/injection, schedule: Q01DX001 (ip), vehicle: carboxymethylcellulose (CMC) 98 % of control | dose: 600.0 mg/kg/injection, schedule: Q01DX009 (ip), vehicle: carboxymethylcellulose (CMC) 89 % of control | dose: 800.0 mg/kg/injection, schedule: Q01DX001 (ip), vehicle: carboxymethylcellulose (CMC) 93 % of control | dose: 800.0 mg/kg/injection, schedule: Q01DX009 (ip), vehicle: carboxymethylcellulose (CMC) 95 % of control

O=C(OC1c2cccc3cccc(c23)C1O)c1ccccc1 (stereo unspecified)
inactive: dose: 100.0 mg/kg/injection, schedule: Q04DX003 (ip), vehicle: other 95 % of control | dose: 200.0 mg/kg/injection, schedule: Q04DX003 (ip), vehicle: other 93 % of control | dose: 400.0 mg/kg/injection, schedule: Q04DX003 (ip), vehicle: other 90 % of control

Nc1c2ccccc2cc2ccccc12
inactive: [3] 91 % of control | [4] 97 % of control | [5] 96 % of control and 112 % of control | [6] 110 % of control | [7] 91 % of control and 97 % of control | [8] 88 % of control

O=C(O)c1ccccc1C(=O)c1ccc(CBr)cc1
inactive: dose: 6.25 mg/kg/injection, schedule: Q01DX009 (ip), vehicle: saline with Tween-80 92 % of control | dose: 12.5 mg/kg/injection, schedule: Q01DX009 (ip), vehicle: saline with Tween-80 104 % of control | [9] 97 % of control

O=[N+]([O-])c1cc(Cl)cc2c1nc(Cl)c1ccccc12
inactive: [10] 94 % of control | [11] 100 % of control | [12] 91 % of control | [13] 98 % of control | dose: 400.0 mg/kg/injection, schedule: Q01DX009 (ip), vehicle: Klucel (hydroxypropylcellulose) (HPC) 91 % of control | [14] 100 % of control

Cc1coc(NS(=O)(=O)c2ccc(N=Nc3c(N)nc(N)nc3N)cc2)c1C
inactive: dose: 100.0 mg/kg/injection, schedule: Q01DX001 (ip), vehicle: saline 97 % of control | dose: 200.0 mg/kg/injection, schedule: Q01DX001 (ip), vehicle: saline 94 % of control | dose: 400.0 mg/kg/injection, schedule: Q01DX001 (ip), vehicle: saline 97 % of control

Cc1cc(C)c(C)c(NCCCS(=O)(=O)O)c1C
inactive: [11] 98 % of control | [13] 102 % of control | [14] 100 % of control

Nc1ccc(P(=O)(O)O)cc1
inactive: dose: 50.0 mg/kg/injection, schedule: Q01DX001 (ip), vehicle: carboxymethylcellulose (CMC) 101 % of control | [15] 97 % of control | [1] 91 % of control | [2] 91 % of control

O=C(O)c1ccccc1C(=O)Nc1ccc([N+](=O)[O-])cc1Cl
inactive: dose: 50.0 mg/kg/injection, schedule: Q01DX009 (ip), vehicle: Klucel (hydroxypropylcellulose) (HPC) 94 % of control | [10] 95 % of control | [11] 97 % of control | [12] 89 % of control | [13] 97 % of control

CC(C)c1cccc(OS(=O)(=O)c2ccccc2[N+](=O)[O-])c1
inactive: [9] 105 % of control | [3] 105 % of control | [4] 105 % of control | [11] 93 % of control | [14] 96 % of control

c1ccc(CNc2ncn[nH]2)cc1
inactive: [3] 95 % of control | [4] 103 % of control | [6] 95 % of control

Nc1cnnc(N)c1Cl
inactive: dose: 5.0 mg/kg/injection, schedule: Q01DX001 (ip), vehicle: saline 102 % of control | dose: 10.0 mg/kg/injection, schedule: Q01DX001 (ip), vehicle: saline 113 % of control | dose: 20.0 mg/kg/injection, schedule: Q01DX001 (ip), vehicle: saline 104 % of control | dose: 40.0 mg/kg/injection, schedule: Q01DX001 (ip), vehicle: saline 95 % of control

CC1(C)CSCC(C)(C)/C(=N/O)C1=O
inactive: dose: 50.0 mg/kg/injection, schedule: Q04DX002 (ip), vehicle: saline with Tween-80 101 % of control | dose: 100.0 mg/kg/injection, schedule: Q04DX002 (ip), vehicle: saline with Tween-80 112 % of control | dose: 200.0 mg/kg/injection, schedule: Q04DX002 (ip), vehicle: saline with Tween-80 101 % of control

Cc1ccc([N+](=O)[O-])cc1NC(=O)COc1ccc(Cl)cc1
inactive: [4] 91 % of control | [6] 89 % of control | [16] 89 % of control

CCCCCCCCCCCCCCCCNc1cc(C)cc(C)c1
inactive: [11] 96 % of control | [13] 95 % of control | [14] 101 % of control

Cc1c2oc3c(C)ccc(C(=O)OCCN4CCOCC4)c3nc-2c(C(=O)OCCN2CCOCC2)c(N)c1=O
inactive: dose: 100.0 mg/kg/injection, schedule: Q04DX002 (ip), vehicle: saline 98 % of control | dose: 200.0 mg/kg/injection, schedule: Q04DX002 (ip), vehicle: saline 103 % of control

CCOC(=O)C(C(=O)OCC)=C(C)C
inactive: [4] 95 % of control | [5] 100 % of control | [6] 100 % of control | [7] 100 % of control | [16] 102 % of control | [8] 106 % of control

C/C=C(\C)c1cc(=O)c2c(C)cc3c(c2o1)C(=O)c1c(O)c(C2CC(C)(N(C)C)C(O)C(C)O2)cc(C2CC(N(C)C)C(O)C(C)O2)c1C3=O (stereo unspecified)
inactive: dose: 100.0 mg/kg/injection, schedule: Q01DX001 (ip), vehicle: saline with Tween-80 120 % of control | dose: 200.0 mg/kg/injection, schedule: Q01DX001 (ip), vehicle: saline with Tween-80 114 % of control

CSc1ccc(N=Cc2ccccc2O)cc1
inactive: [15] 93 % of control | [1] 93 % of control | [2] 98 % of control

Clc1ccc(N(c2ccccc2)c2ccccc2)cc1
inactive: [15] 115 % of control | [1] 100 % of control | [2] 108 % of control

CCOC(=O)C1CC2(OCCO2)c2c(OC)ccc(Cl)c2C1C (stereo unspecified)
inactive: dose: 75.0 mg/kg/injection, schedule: Q01DX001 (ip), vehicle: saline 102 % of control | dose: 150.0 mg/kg/injection, schedule: Q01DX001 (ip), vehicle: saline 96 % of control | dose: 300.0 mg/kg/injection, schedule: Q01DX001 (ip), vehicle: saline 94 % of control

CNC(=O)NC1C(O)C(OC)OC2COC(c3ccccc3)OC21 (stereo unspecified)
inactive: [5] 92 % of control | [7] 92 % of control
